This is an account of results in US20250368648A1, “MULTI-CYCLIC IRAK AND FLT3 INHIBITING COMPOUNDS AND USES THEREOF” (CHILDREN'S HOSPITAL MEDICAL CENTER, priority 2022, published 2025).

In one assay the target is T1, FLT3 K663Q (Homo sapiens, UniProt P36888, K663Q).
T1 construct: purchased DiscoverX (KINOMEscan); host or cells: E. coli (T7 phage) or HEK-293
T1 sequence (P36888 27-993 K663Q): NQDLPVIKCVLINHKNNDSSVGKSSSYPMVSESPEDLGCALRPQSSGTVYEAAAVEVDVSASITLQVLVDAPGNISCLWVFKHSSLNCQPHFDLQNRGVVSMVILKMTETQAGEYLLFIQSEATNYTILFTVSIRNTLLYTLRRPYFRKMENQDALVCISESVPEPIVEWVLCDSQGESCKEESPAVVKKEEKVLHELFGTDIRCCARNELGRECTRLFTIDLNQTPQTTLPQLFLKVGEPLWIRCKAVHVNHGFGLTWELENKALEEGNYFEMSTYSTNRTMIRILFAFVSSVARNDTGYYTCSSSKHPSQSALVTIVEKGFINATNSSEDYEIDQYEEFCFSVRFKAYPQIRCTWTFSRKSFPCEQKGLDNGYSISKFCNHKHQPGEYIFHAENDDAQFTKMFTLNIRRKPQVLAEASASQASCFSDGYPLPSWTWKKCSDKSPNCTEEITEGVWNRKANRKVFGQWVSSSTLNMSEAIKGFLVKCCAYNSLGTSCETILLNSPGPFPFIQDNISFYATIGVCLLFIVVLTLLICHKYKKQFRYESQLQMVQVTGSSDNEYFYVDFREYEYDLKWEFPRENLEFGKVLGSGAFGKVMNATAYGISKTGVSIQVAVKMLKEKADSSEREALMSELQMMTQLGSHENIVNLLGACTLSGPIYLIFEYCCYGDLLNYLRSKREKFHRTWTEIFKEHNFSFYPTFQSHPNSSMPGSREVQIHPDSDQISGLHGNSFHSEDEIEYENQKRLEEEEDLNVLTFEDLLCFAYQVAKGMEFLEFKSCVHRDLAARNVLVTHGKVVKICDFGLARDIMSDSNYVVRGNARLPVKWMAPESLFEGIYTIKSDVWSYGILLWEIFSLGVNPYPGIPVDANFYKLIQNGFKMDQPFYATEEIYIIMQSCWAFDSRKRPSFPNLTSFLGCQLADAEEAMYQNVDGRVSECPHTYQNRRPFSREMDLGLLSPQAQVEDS
The assay can be described thus: DiscoverX KINOMEscan competition binding, FLT3 K663Q. The note with it: no ATP. The source says:
(§1) Kinase binding data were obtained for various exemplary compounds prepared according to Examples 2-15 using the DiscoverX KINOMEscan® active site-directed competition binding site-directed assay protocol described below. […] As a result, the data report thermodynamic interaction affinities (Kd values), rather than IC50 values that are dependent on ATP concentrations. The assay uses a DNA-tagged version of the protein kinase, and an immobilized ligand bound to a solid support. Compounds that directly or indirectly prevent kinase binding to the immobilized ligand reduce the amount of kinase captured on the solid support, which is detected using an ultra-sensitive qPCR method. Affinity constants reported from the assay have been reported to be independent of the immobilized ligand used that is coupled to the solid support (See supplemental information in Fabian, M. A. et. al., (2005) Nat. […] Wodicka, L. […] Biol. 17, 1241-1249.) Kinase-tagged T7 phage strains were prepared in an E. coli host derived from the BL21 strain. E. coli were grown to log-phase and infected with T7 phage and incubated with shaking at 32° C. until lysis. […] Kds were determined using an 11-point 3-fold compound dilution series with three DMSO control points. […] The kinase concentration in the eluates was measured by qPCR. Binding constants (Kds) were calculated with a standard dose-response curve using the Hill equation. […]

In a further assay the target is T2, FLT3 N841I (Homo sapiens, UniProt P36888, N841I).
T2 construct: purchased DiscoverX (KINOMEscan); host or cells: E. coli (T7 phage) or HEK-293
T2 sequence (P36888 27-993 N841I): T1 sequence (P36888 27-993 K663Q) with Q637K, N815I
Put plainly: DiscoverX KINOMEscan competition binding, FLT3 N841I. The note with it: no ATP.
Excerpt: as §1

Molecules are shown by their SMILES. Numbering of substitutions follows the chain as printed.

Turning to `COc1cc2ncc(-c3nc(N[C@H]4CNCC[C@@H]4F)c(F)cc3F)n2nc1C1CCC1` [Compound 15a, 6-(6-cyclobutyl-7-methoxyimidazo[1,2-b]pyridazin-3-yl)-3,5-difluoro-N-((3S,4S)-4-fluoropiperidin-3-yl)pyridin-2-amine], the Kd on FLT3 K663Q stood at 620 pM; on FLT3 N841I it was 250 pM.

For orientation: Kd means a measure of binding affinity in units of concentration. A higher Kd goes with a looser complex.
